Patent US20230391760A1, “HETEROCYCLIC GLP-1 AGONISTS” (Gasherbrum Bio, Inc., priority 2020, published 2023)

Biological target: GLP-1 Receptor (Homo sapiens, UniProt P43220)
Assay: GLP-1R agonist cAMP stimulation assay (HEK293/GLP1R/CRE-LUC cells, cAMP dynamic 2 Kit)
Type: cell-based
Details: HEK293/CRE-Luc cell line stably expressing the GLP-1 Receptor, 30 min at 37° C.
How it was run: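 cAMP measured by HTRF competition (d2-labelled cAMP with cryptate antibody, 1 h, room temperature, protected from light). Before that, GLP1R/CRE-Luc HEK293 cells (1000/well) were exposed for 30 min at 37 °C to half-log compound dilutions in DPBS containing IBMX 0.5 mM and BSA 0.1%.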

Chain of GLP-1 Receptor (P43220 24-463, species assumed): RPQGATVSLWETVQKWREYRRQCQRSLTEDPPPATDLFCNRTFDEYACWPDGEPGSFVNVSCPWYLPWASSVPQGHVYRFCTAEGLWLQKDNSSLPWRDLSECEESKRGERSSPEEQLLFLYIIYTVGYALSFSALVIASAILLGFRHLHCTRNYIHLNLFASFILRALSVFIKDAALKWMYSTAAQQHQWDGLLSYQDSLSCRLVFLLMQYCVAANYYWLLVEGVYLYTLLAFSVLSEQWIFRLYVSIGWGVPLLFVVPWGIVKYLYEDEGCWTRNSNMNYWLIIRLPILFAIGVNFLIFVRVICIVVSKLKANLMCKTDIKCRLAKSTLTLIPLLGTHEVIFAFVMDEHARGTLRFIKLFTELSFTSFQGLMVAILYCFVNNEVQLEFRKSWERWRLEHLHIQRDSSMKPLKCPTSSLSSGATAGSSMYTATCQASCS

Row | EC50 | Structure (SMILES)
1 | 0.84 nM | O=C(Nc1ccc2c(c1)nc(CN1CCC(c3cccc(OCc4ccccc4)n3)CC1)n2C[C@@H]1CCO1)c1cccnc1 [Compound 204a, N-[2-({4-[6-(benzyloxy)pyridin-2-yl]piperidin-1-yl}methyl)-1-{[(2S)-oxetan-2-yl]methyl}-1H-1,3-benzodiazol-5-yl]pyridine-3-carboxamide]
2 | 0.56 nM | O=C(Nc1ccc2c(c1)nc(CN1CCC(c3cccc(OCc4ccc(Cl)cc4F)n3)CC1)n2C[C@@H]1CCO1)C1CCO1 (stereo partly drawn) [Compound 129a, N-{2-[(4-{6-[(4-chloro-2-fluorophenyl)methoxy]pyridin-2-yl}piperidin-1-yl)methyl]-1-{[(2S)-oxetan-2-yl]methyl}-1H-1,3-benzodiazol-5-yl}oxetane-2-carboxamide]
3 | 0.23 nM | O=C(Nc1ccc2c(c1)nc(CN1CCC(c3cccc(OCc4ccc(Cl)cc4F)n3)CC1)n2C[C@@H]1CCO1)C1CC12CCC2 (stereo partly drawn) [Compound 193a, N-{2-[(4-{6-[(4-chloro-2-fluorophenyl)methoxy]pyridin-2-yl}piperidin-1-yl)methyl]-1-{[(2S)-oxetan-2-yl]methyl}-1H-1,3-benzodiazol-5-yl}spiro[2.3]hexane-1-carboxamide]
4 | 0.92 nM | N#Cc1cccc(C(=O)Nc2ccc3c(c2)nc(CN2CCC(c4cccc(OCc5ccc(Cl)cc5F)n4)CC2)n3C[C@@H]2CCO2)c1 [Compound 169a, N-{2-[(4-{6-[(4-chloro-2-fluorophenyl)methoxy]pyridin-2-yl}piperidin-1-yl)methyl]-1-{[(2S)-oxetan-2-yl]methyl}-1H-1,3-benzodiazol-5-yl}-3-cyanobenzamide]
5 | 1.5 nM | COc1ccc(C(=O)Nc2ccc3c(c2)nc(CN2CCC(c4cccc(OCc5ccc(Cl)cc5F)n4)CC2)n3C[C@@H]2CCO2)cn1 [Compound 175a, N-{2-[(4-{6-[(4-chloro-2-fluorophenyl)methoxy]pyridin-2-yl}piperidin-1-yl)methyl]-1-{[(2S)-oxetan-2-yl]methyl}-1H-1,3-benzodiazol-5-yl}-6-methoxypyridine-3-carboxamide]
6 | 4.6 nM | Fc1cc(Cl)ccc1COc1cccc(C2CCN(Cc3nc4cc(/C=C/c5cccnc5)ccc4n3C[C@@H]3CCO3)CC2)n1 [Compound 217a, 2-[(4-{6-[(4-chloro-2-fluorophenyl)methoxy]pyridin-2-yl}piperidin-1-yl)methyl]-1-{[(2S)-oxetan-2-yl]methyl}-5-[(E)-2-(pyridin-3-yl)ethenyl]-1H-1,3-benzodiazole]
7 | 0.61 nM | O=C(CC(F)(F)F)Nc1ccc2c(c1)nc(CN1CCC(c3cccc(OCc4ccc(Cl)cc4F)n3)CC1)n2C[C@@H]1CCO1 [Compound 150a, N-{2-[(4-{6-[(4-chloro-2-fluorophenyl)methoxy]pyridin-2-yl}piperidin-1-yl)methyl]-1-{[(2S)-oxetan-2-yl]methyl}-1H-1,3-benzodiazol-5-yl}-3,3,3-trifluoropropanamide]

The next lines start with the molecule.

Row | Structure (SMILES) | EC50
8 | C[C@]1(c2ccc(Cl)cn2)Oc2cccc(C3CCN(Cc4nc5cc(-c6nnc(C#N)[nH]6)ncc5n4C[C@@H]4CCO4)CC3)c2O1 [Compound 481a, 5-[2-({4-[(2S)-2-(5-chloropyridin-2-yl)-2-methyl-2H-1,3-benzodioxol-4-yl]piperidin-1-yl}methyl)-3-{[(2S)-oxetan-2-yl]methyl}-3H-imidazo[4,5-c]pyridin-6-yl]-4H-1,2,4-triazole-3-carbonitrile] | 0.0048 nM
9 | Cc1cnc(-c2ccc3c(c2)nc(CN2CCC(c4cccc5c4O[C@@](C)(c4ccc(Cl)cc4F)O5)CC2)n3C[C@@H]2CCO2)nc1 [Compound 236a, 2-((4-((S)-2-(4-chloro-2-fluorophenyl)-2-methylbenzo[d][1,3]dioxol-4-yl)piperidin-1-yl)methyl)-5-(5-methylpyrimidin-2-yl)-1-(((S)-oxetan-2-yl)methyl)-1H-benzo[d]imidazole] | 2 nM
10 | CC1(c2ccc(C#N)cc2F)Oc2cccc(C3CCN(Cc4nc5cc(-c6nnc(C(F)(F)F)[nH]6)nnc5n4C[C@@H]4CCO4)CC3)c2O1 (stereo partly drawn) [Compound 273a, 3-fluoro-4-(2-methyl-4-{1-[(7-{[(2S)-oxetan-2-yl]methyl}-3-[5-(trifluoromethyl)-4H-1,2,4-triazol-3-yl]-7H-imidazo[4,5-c]pyridazin-6-yl)methyl]piperidin-4-yl}-2H-1,3-benzodioxol-2-yl)benzonitrile] | 0.019 nM
11 | Fc1cc(Cl)ccc1C1COc2cccc(C3CCN(Cc4nc5cc(-c6nnc(C(F)(F)F)[nH]6)ncc5n4C[C@@H]4CCO4)CC3)c2O1 (stereo partly drawn) [Compound 457a, 4-[3-(4-chloro-2-fluorophenyl)-2,3-dihydro-1,4-benzodioxin-5-yl]-1-[(3-{[(2S)-oxetan-2-yl]methyl}-6-[5-(trifluoromethyl)-4H-1,2,4-triazol-3-yl]-3H-imidazo[4,5-c]pyridin-2-yl)methyl]piperidine] | 0.12 nM
12 | CO[C@@H](C)Cn1c(CN2CCC(c3cccc4c3OC(C)(c3ccc(Cl)cn3)O4)CC2)nc2cc(-c3nnc(C(F)(F)F)[nH]3)ncc21 (stereo partly drawn) [Compound 445a, 5-chloro-2-{4-[1-({3-[(2S)-2-methoxypropyl]-6-[5-(trifluoromethyl)-4H-1,2,4-triazol-3-yl]-3H-imidazo[4,5-c]pyridin-2-yl}methyl)piperidin-4-yl]-2-methyl-2H-1,3-benzodioxol-2-yl}pyridine] | 2 nM
13 | CC1(c2ccccc2)Oc2cccc(C3CCN(Cc4nc5cc(-c6nnc(C(F)(F)F)[nH]6)ccc5n4C[C@@H]4CCO4)CC3)c2O1 (stereo partly drawn) [Compound 405a, 2-{[4-(2-methyl-2-phenyl-2H-1,3-benzodioxol-4-yl)piperidin-1-yl]methyl}-1-{[(2S)-oxetan-2-yl]methyl}-5-[5-(trifluoromethyl)-4H-1,2,4-triazol-3-yl]-1H-1,3-benzodiazole] | 0.53 nM
14 | CO[C@@H](C)Cn1c(CN2CCC(c3cccc4c3O[C@@](C)(c3ccc(Cl)cc3F)O4)CC2)nc2cc(-c3nnc(C(F)(F)F)[nH]3)ncc21 [Compound 420a, 4-[(2S)-2-(4-chloro-2-fluorophenyl)-2-methyl-2H-1,3-benzodioxol-4-yl]-1-({3-[(2S)-2-methoxypropyl]-6-[5-(trifluoromethyl)-4H-1,2,4-triazol-3-yl]-3H-imidazo[4,5-c]pyridin-2-yl}methyl)piperidine] | 0.21 nM
15 | Cn1cc(-c2ccc3c(c2)nc(CN2CCC(c4cccc5c4OC(C)(c4ccc(Cl)cc4F)O5)CC2)n3C[C@@H]2CCO2)cn1 (stereo partly drawn) [Compound 233a, 2-((4-(2-(4-chloro-2-fluorophenyl)-2-methylbenzo[d][1,3]dioxol-4-yl)piperidin-1-yl)methyl)-5-(1-methyl-1H-pyrazol-4-yl)-1-(((S)-oxetan-2-yl)methyl)-1H-benzo[d]imidazole] | 4 nM
16 | CC1(c2ccc(C#N)cc2F)Oc2cccc(C3CCN(Cc4nc5cc(-c6noc(=O)[nH]6)cnc5n4C[C@@H]4CCO4)CC3)c2O1 (stereo partly drawn) [Compound 329a, 3-fluoro-4-(2-methyl-4-{1-[(3-{[(2S)-oxetan-2-yl]methyl}-6-(5-oxo-4,5-dihydro-1,2,4-oxadiazol-3-yl)-3H-imidazo[4,5-b]pyridin-2-yl)methyl]piperidin-4-yl}-2H-1,3-benzodioxol-2-yl)benzonitrile] | 0.25 nM
